Values joined by “and” are separate entries in the source; they are usually repeats but may differ in a detail not shown here. Equal values may be shown once. Inconclusive results and toxic doses are left out.
Tested on: BDF1 mice, P388 leukemia ip, median survival T/C
Assay: NCI In Vivo Anticancer Drug Screen. Data for tumor model P388 Leukemia (intraperitoneal) in B6D2F1 (BDF1) mice
Conditions: endpoint: median survival time, higher = longer survival
Method in brief: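 Survival ratio, drug arm over vehicle arm, in mice with a transplanted tumour.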

[1] = dose: 25.0 mg/kg/injection, schedule: Q04DX003 (ip), vehicle: saline with Tween-80
[2] = dose: 50.0 mg/kg/injection, schedule: Q04DX003 (ip), vehicle: saline with Tween-80
[3] = dose: 50.0 mg/kg/injection, schedule: Q01DX009 (ip), vehicle: saline with Tween-80
[4] = dose: 100.0 mg/kg/injection, schedule: Q01DX009 (ip), vehicle: saline with Tween-80
[5] = dose: 200.0 mg/kg/injection, schedule: Q01DX009 (ip), vehicle: saline with Tween-80
[6] = dose: 100.0 mg/kg/injection, schedule: Q04DX003 (ip), vehicle: saline with Tween-80
[7] = dose: 200.0 mg/kg/injection, schedule: Q04DX003 (ip), vehicle: saline with Tween-80
[8] = dose: 400.0 mg/kg/injection, schedule: Q01DX009 (ip), vehicle: saline with Tween-80
[9] = dose: 400.0 mg/kg/injection, schedule: Q04DX003 (ip), vehicle: saline with Tween-80
[10] = dose: 50.0 mg/kg/injection, schedule: Q01DX009 (ip), vehicle: Klucel (hydroxypropylcellulose) (HPC)
[11] = dose: 100.0 mg/kg/injection, schedule: Q01DX009 (ip), vehicle: Klucel (hydroxypropylcellulose) (HPC)
[12] = dose: 200.0 mg/kg/injection, schedule: Q01DX009 (ip), vehicle: Klucel (hydroxypropylcellulose) (HPC)
[13] = dose: 100.0 mg/kg/injection, schedule: Q01DX001 (ip), vehicle: other

CCOC(=O)c1c[nH]c2ccc(N(CCCl)CCCl)cc12
T/C (dose: 0.29 mg/kg/injection, schedule: Q01DX009 (ip), vehicle: saline with Tween-80): 101 % of control
T/C (dose: 0.44 mg/kg/injection, schedule: Q01DX009 (ip), vehicle: saline with Tween-80): 101 % of control
T/C (dose: 0.88 mg/kg/injection, schedule: Q01DX009 (ip), vehicle: saline with Tween-80): 152 % of control
T/C (dose: 0.88 mg/kg/injection, schedule: Q04DX003 (ip), vehicle: saline with Tween-80): 118 % of control
T/C (dose: 1.32 mg/kg/injection, schedule: Q04DX003 (ip), vehicle: saline with Tween-80): 122 % of control
T/C (dose: 1.33 mg/kg/injection, schedule: Q01DX009 (ip), vehicle: saline with Tween-80): 158 % of control
T/C (dose: 2.0 mg/kg/injection, schedule: Q01DX009 (ip), vehicle: saline with Tween-80): 177 % of control
T/C (dose: 2.66 mg/kg/injection, schedule: Q01DX009 (ip), vehicle: saline with Tween-80): 164 % of control
T/C (dose: 3.0 mg/kg/injection, schedule: Q01DX009 (ip), vehicle: saline with Tween-80): 186 % of control
T/C (dose: 4.0 mg/kg/injection, schedule: Q01DX009 (ip), vehicle: saline with Tween-80): 176 % of control
T/C (dose: 5.0 mg/kg/injection, schedule: Q04DX003 (ip), vehicle: saline with Tween-80): 158 % of control
T/C (dose: 6.0 mg/kg/injection, schedule: Q01DX009 (ip), vehicle: saline with Tween-80): 191 % of control
T/C (dose: 7.5 mg/kg/injection, schedule: Q04DX003 (ip), vehicle: saline with Tween-80): 166 % of control
T/C (dose: 9.0 mg/kg/injection, schedule: Q01DX009 (ip), vehicle: saline with Tween-80): 252 % of control
T/C (dose: 12.5 mg/kg/injection, schedule: Q04DX003 (ip), vehicle: saline with Tween-80): 190 % of control
T/C [1]: 177 % of control
T/C [2]: 218 % of control

O=C1C(=C2CCCCC2)SC(=S)N1c1ccccc1
T/C [3]: 106 % of control
T/C [4]: 103 % of control
T/C [5]: 103 % of control

CCO/C=C/C=C1C(=O)N(C)C(=O)N(C)C1=O
T/C (dose: 50.0 mg/kg/injection, schedule: Q01DX009 (ip), vehicle: other): 122 % of control

O=[N+]([O-])c1ccc2c(c1)c(-c1cc(Cl)cc(Cl)c1)nc1ccccc12
T/C (dose: 25.0 mg/kg/injection, schedule: Q01DX009 (ip), vehicle: saline with Tween-80): 108 % of control
T/C [3]: 97 % of control
T/C [4]: 101 % of control
T/C [6]: 99 % of control
T/C [5]: 90 % of control
T/C [7]: 88 % of control
T/C [8]: 99 % of control
T/C [9]: 107 % of control

Cc1ccc(C(=O)C2C(c3ccccc3)N2Cc2ccccc2)cc1 (stereo not drawn)
T/C [6]: 94 % of control and 99 % of control
T/C [7]: 109 % of control and 92 % of control
T/C [9]: 99 % of control and 87 % of control

Cc1cnccc1Br
T/C (dose: 12.5 mg/kg/injection, schedule: Q04DX003 (ip), vehicle: water): 103 % of control
T/C (dose: 25.0 mg/kg/injection, schedule: Q04DX003 (ip), vehicle: water): 103 % of control
T/C (dose: 50.0 mg/kg/injection, schedule: Q04DX003 (ip), vehicle: water): 103 % of control
T/C (dose: 100.0 mg/kg/injection, schedule: Q04DX003 (ip), vehicle: water): 97 % of control
T/C (dose: 200.0 mg/kg/injection, schedule: Q04DX003 (ip), vehicle: water): 94 % of control

CC[C@H]1OC(=O)[C@H](C)[C@@H](OC2CC(C)(OC)C(OC(=O)CCCC(=O)O)C(C)O2)[C@H](C)[C@@H](OC2OC(C)CC(N(C)C)C2O)[C@](C)(O)C[C@@H](C)C(=O)[C@H](C)[C@@H](O)[C@]1(C)O (stereo partly drawn)
T/C (dose: 7.5 mg/kg/injection, schedule: Q01DX009 (ip), vehicle: Klucel (hydroxypropylcellulose) (HPC)): 111 % of control
T/C (dose: 15.0 mg/kg/injection, schedule: Q01DX009 (ip), vehicle: Klucel (hydroxypropylcellulose) (HPC)): 101 % of control
T/C (dose: 30.0 mg/kg/injection, schedule: Q01DX009 (ip), vehicle: Klucel (hydroxypropylcellulose) (HPC)): 97 % of control
T/C (dose: 60.0 mg/kg/injection, schedule: Q01DX009 (ip), vehicle: Klucel (hydroxypropylcellulose) (HPC)): 111 % of control

CC12COC(=O)CC1CCC1C2CCC2(C)C1CCC2(C)O (stereo not drawn)
T/C [3]: 90 % of control
T/C [4]: 95 % of control
T/C [5]: 100 % of control

Oc1ccccc1/C=N\c1nccs1
T/C (dose: 25.0 mg/kg/injection, schedule: Q01DX009 (ip), vehicle: Klucel (hydroxypropylcellulose) (HPC)): 111 % of control
T/C [10]: 96 % of control and 109 % of control
T/C [11]: 96 % of control and 118 % of control
T/C [12]: 122 % of control and 123 % of control

Cc1onc(-c2ccccc2Cl)c1C(=O)Nc1ccccc1CC1c2ccccc2CCN1C (stereo not drawn)
T/C [10]: 101 % of control
T/C [11]: 104 % of control
T/C [12]: 95 % of control

O=C(NNC(=O)C12CC3CC(CC(C3)C1)C2)c1ccncc1
T/C [3]: 96 % of control
T/C [4]: 101 % of control
T/C [5]: 92 % of control

OC(CCl)COCC#Cc1ccccc1 (stereo not drawn)
T/C [1]: 105 % of control
T/C [2]: 100 % of control
T/C [4]: 95 % of control
T/C [6]: 115 % of control
T/C [5]: 112 % of control
T/C [7]: 95 % of control
T/C [8]: 116 % of control
T/C [9]: 95 % of control

CSc1nnc(-c2ccncc2)s1
T/C (dose: 50.0 mg/kg/injection, schedule: Q01DX001 (ip), vehicle: saline): 100 % of control
T/C (dose: 100.0 mg/kg/injection, schedule: Q01DX001 (ip), vehicle: saline): 100 % of control
T/C (dose: 200.0 mg/kg/injection, schedule: Q01DX001 (ip), vehicle: saline): 100 % of control

O=c1oc2ccc(O)cc2c2ccccc12
T/C (dose: 50.0 mg/kg/injection, schedule: Q04DX003 (ip), vehicle: saline sonified): 95 % of control
T/C (dose: 100.0 mg/kg/injection, schedule: Q04DX003 (ip), vehicle: saline sonified): 100 % of control
T/C (dose: 200.0 mg/kg/injection, schedule: Q04DX003 (ip), vehicle: saline sonified): 104 % of control

CCN(CC)CCCCCCNc1cc(OC)c(F)c2c(C)ccnc12
T/C (dose: 3.13 mg/kg/injection, schedule: Q01DX009 (ip), vehicle: saline): 109 % of control
T/C (dose: 6.25 mg/kg/injection, schedule: Q01DX009 (ip), vehicle: saline): 107 % of control
T/C (dose: 12.5 mg/kg/injection, schedule: Q01DX009 (ip), vehicle: saline): 116 % of control

OC(c1ccccc1)c1ccccc1
T/C [13]: 95 % of control
T/C (dose: 200.0 mg/kg/injection, schedule: Q01DX001 (ip), vehicle: other): 104 % of control
T/C (dose: 400.0 mg/kg/injection, schedule: Q01DX001 (ip), vehicle: other): 100 % of control

OC(Cc1ccccc1)(c1ccccc1)c1cccc2ccccc12 (stereo not drawn)
T/C [11]: 100 % of control
T/C [12]: 100 % of control
T/C (dose: 400.0 mg/kg/injection, schedule: Q01DX009 (ip), vehicle: Klucel (hydroxypropylcellulose) (HPC)): 104 % of control

N=C(N)CCNC(=O)C1CCC(N)=N1 (stereo not drawn)
T/C (dose: 2.0 mg/kg/injection, schedule: Q01DX009 (ip), vehicle: saline): 91 % of control
T/C (dose: 4.0 mg/kg/injection, schedule: Q01DX009 (ip), vehicle: saline): 100 % of control
T/C (dose: 8.0 mg/kg/injection, schedule: Q01DX009 (ip), vehicle: saline): 108 % of control

O=C(O)CS(=O)(=O)c1ccccc1
T/C (dose: 25.0 mg/kg/injection, schedule: Q04DX003 (ip), vehicle: saline): 109 % of control
T/C (dose: 50.0 mg/kg/injection, schedule: Q01DX001 (ip), vehicle: other): 95 % of control
T/C (dose: 50.0 mg/kg/injection, schedule: Q01DX009 (ip), vehicle: saline): 108 % of control
T/C (dose: 50.0 mg/kg/injection, schedule: Q04DX003 (ip), vehicle: saline): 109 % of control
T/C [13]: 100 % of control
T/C (dose: 100.0 mg/kg/injection, schedule: Q01DX009 (ip), vehicle: saline): 120 % of control
T/C (dose: 100.0 mg/kg/injection, schedule: Q04DX003 (ip), vehicle: saline): 100 % of control
T/C (dose: 200.0 mg/kg/injection, schedule: Q01DX009 (ip), vehicle: saline): 108 % of control

— PubChem BioAssay AID328 (DTP/NCI, 2004)
